What was measured:
[1] = target: RAC-beta serine/threonine-protein kinase (Homo sapiens) (UniProt P31751); test: Percentage PKBbeta activity remaining in the presence of 2uM inhibitor
[2] = target: Dual specificity tyrosine-phosphorylation-regulated kinase 1A (Homo sapiens) (UniProt Q13627); test: Percentage DYRK1A activity remaining in the presence of 2uM inhibitor; conditions: filed as antagonist
[3] = target: Calcium/calmodulin-dependent protein kinase kinase 2 (Homo sapiens) (UniProt Q96RR4); test: Percentage CaMKKbeta activity remaining in the presence of 2uM inhibitor
Sequence of Calcium/calmodulin-dependent protein kinase kinase 2 (Homo sapiens) (Q96RR4 2-588 limits assumed): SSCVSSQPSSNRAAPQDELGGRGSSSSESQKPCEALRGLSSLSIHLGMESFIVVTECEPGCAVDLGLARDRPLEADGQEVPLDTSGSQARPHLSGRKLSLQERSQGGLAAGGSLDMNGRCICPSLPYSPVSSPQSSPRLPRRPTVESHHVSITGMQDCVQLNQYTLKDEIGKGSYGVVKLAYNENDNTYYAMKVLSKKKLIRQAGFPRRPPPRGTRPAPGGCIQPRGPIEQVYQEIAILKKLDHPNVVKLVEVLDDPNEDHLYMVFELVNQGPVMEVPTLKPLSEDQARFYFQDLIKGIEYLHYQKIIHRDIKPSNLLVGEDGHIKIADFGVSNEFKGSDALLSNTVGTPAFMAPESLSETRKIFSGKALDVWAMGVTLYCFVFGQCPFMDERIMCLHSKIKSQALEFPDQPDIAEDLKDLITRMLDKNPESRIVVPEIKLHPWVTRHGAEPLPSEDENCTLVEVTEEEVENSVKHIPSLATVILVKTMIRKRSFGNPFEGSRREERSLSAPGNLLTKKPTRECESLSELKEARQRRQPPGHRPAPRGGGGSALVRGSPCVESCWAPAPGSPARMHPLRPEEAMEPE

[4] = target: Serine/threonine-protein kinase Chk2 (Homo sapiens) (UniProt O96017); test: Percentage CHK2 activity remaining in the presence of 2uM inhibitor
Sequence of Serine/threonine-protein kinase Chk2 (Homo sapiens) (O96017 whole entry): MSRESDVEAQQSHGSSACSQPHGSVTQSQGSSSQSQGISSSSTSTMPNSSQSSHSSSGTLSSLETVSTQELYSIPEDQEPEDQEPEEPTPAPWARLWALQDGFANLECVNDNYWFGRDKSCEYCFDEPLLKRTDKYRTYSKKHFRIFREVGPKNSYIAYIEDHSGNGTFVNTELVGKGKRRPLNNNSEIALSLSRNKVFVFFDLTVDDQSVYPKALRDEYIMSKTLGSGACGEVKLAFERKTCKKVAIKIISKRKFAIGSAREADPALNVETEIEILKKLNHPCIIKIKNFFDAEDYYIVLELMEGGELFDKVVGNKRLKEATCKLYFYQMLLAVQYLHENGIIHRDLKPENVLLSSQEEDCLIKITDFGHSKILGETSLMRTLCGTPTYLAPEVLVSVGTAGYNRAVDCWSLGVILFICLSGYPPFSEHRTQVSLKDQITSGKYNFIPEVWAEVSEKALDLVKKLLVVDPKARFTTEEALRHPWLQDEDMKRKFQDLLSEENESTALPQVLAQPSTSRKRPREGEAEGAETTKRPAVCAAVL

[5] = target: MAP kinase-activated protein kinase 2 (Homo sapiens) (UniProt P49137); test: Percentage MAPKAPK2 activity remaining in the presence of 2uM inhibitor
Sequence of MAP kinase-activated protein kinase 2 (Homo sapiens) (P49137 whole entry, looked up): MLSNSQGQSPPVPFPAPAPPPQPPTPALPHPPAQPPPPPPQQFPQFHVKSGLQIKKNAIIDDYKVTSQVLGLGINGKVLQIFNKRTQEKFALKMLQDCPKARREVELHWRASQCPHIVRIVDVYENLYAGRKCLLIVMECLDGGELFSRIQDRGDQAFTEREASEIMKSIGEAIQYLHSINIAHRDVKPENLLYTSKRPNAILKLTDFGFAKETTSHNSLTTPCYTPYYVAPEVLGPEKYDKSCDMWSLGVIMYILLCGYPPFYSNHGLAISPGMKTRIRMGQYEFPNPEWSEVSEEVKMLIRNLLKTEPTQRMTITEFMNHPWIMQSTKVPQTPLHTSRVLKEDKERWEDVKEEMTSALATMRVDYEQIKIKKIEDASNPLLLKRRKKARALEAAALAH

[6] = target: Aurora kinase B (Homo sapiens, UniProt Q96GD4); test: Percentage Aurora B activity remaining in the presence of 3uM inhibitor
Sequence of Aurora kinase B (Q96GD4 whole entry): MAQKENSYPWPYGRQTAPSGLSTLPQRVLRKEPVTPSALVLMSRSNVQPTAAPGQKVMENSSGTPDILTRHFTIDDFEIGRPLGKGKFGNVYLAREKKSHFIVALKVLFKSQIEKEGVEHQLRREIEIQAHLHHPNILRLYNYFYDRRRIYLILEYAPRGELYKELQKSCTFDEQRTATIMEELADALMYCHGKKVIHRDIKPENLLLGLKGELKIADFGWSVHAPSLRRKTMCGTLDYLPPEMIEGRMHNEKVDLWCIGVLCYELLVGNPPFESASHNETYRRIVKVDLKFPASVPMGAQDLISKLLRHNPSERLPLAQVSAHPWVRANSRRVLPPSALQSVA

[7] = target: T1, Dual specificity tyrosine-phosphorylation-regulated kinase 2 (Homo sapiens) (UniProt Q92630); test: Percentage DYRK2 activity remaining in the presence of 3uM inhibitor
T1 sequence (whole entry): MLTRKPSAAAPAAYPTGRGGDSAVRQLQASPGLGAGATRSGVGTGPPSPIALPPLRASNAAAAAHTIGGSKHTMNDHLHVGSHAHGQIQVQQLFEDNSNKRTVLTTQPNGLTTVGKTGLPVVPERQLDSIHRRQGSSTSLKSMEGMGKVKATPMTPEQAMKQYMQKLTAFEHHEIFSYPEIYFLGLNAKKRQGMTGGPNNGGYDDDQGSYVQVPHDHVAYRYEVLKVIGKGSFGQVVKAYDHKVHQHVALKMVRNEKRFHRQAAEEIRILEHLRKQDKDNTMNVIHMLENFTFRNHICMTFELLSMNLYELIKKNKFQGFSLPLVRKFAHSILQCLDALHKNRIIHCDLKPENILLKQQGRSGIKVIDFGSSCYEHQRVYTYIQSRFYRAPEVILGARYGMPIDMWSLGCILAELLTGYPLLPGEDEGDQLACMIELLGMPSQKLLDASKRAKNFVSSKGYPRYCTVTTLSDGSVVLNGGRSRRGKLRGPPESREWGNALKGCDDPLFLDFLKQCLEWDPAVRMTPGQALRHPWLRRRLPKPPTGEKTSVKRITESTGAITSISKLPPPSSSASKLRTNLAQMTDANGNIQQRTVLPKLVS

[8] = target: T2, Inhibitor of nuclear factor kappa-B kinase subunit beta (Homo sapiens) (UniProt O14920); test: Percentage IKK-beta activity remaining in the presence of 3uM inhibitor
T2 sequence (whole entry): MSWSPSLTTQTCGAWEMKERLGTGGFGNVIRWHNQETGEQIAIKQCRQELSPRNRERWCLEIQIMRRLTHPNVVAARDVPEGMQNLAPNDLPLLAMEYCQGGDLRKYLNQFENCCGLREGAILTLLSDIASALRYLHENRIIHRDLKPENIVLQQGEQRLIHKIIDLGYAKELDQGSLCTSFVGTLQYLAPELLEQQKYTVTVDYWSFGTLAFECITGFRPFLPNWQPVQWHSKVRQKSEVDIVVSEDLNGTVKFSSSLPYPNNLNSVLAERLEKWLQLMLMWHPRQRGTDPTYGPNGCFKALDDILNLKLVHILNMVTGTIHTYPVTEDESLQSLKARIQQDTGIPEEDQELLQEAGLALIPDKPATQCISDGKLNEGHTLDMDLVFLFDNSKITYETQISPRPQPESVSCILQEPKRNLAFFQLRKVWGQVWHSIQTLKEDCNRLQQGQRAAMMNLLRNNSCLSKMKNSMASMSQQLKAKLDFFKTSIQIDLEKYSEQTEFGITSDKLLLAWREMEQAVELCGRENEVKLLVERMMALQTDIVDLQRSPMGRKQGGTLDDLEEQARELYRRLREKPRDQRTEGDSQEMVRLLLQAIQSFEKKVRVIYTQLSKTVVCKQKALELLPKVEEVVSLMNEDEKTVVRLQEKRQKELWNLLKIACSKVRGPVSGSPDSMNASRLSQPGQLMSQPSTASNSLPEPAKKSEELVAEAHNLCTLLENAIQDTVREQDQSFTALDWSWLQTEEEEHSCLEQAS

[9] = target: Ribosomal protein S6 kinase alpha-5 (Homo sapiens) (UniProt O75582); test: Percentage MSK1 activity remaining in the presence of 3uM inhibitor
Sequence of Ribosomal protein S6 kinase alpha-5 (Homo sapiens) (O75582 whole entry, looked up): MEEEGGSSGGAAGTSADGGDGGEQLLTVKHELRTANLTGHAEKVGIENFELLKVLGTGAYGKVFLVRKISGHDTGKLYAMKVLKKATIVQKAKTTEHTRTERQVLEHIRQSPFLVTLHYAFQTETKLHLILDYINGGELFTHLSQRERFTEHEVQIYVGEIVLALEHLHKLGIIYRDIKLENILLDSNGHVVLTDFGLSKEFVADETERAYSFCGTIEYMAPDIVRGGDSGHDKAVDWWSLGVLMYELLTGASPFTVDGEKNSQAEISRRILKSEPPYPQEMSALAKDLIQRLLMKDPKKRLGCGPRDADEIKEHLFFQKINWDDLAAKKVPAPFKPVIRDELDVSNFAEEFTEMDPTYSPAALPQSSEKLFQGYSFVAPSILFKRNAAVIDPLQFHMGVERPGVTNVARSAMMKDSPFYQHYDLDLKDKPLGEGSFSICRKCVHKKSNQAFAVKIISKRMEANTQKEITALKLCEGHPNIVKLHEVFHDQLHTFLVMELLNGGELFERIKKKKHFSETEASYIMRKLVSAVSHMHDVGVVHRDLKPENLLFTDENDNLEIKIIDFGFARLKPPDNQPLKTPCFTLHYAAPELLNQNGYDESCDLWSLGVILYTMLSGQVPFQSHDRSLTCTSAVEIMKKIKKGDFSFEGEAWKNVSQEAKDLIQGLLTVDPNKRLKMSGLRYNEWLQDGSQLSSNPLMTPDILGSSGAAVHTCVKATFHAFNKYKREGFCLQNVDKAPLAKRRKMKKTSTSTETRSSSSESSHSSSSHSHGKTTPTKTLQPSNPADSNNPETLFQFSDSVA

[10] = target: T3, Mitogen-activated protein kinase 15 (Homo sapiens) (UniProt Q8TD08); test: Percentage ERK8 activity remaining in the presence of 3uM inhibitor
T3 sequence (whole entry): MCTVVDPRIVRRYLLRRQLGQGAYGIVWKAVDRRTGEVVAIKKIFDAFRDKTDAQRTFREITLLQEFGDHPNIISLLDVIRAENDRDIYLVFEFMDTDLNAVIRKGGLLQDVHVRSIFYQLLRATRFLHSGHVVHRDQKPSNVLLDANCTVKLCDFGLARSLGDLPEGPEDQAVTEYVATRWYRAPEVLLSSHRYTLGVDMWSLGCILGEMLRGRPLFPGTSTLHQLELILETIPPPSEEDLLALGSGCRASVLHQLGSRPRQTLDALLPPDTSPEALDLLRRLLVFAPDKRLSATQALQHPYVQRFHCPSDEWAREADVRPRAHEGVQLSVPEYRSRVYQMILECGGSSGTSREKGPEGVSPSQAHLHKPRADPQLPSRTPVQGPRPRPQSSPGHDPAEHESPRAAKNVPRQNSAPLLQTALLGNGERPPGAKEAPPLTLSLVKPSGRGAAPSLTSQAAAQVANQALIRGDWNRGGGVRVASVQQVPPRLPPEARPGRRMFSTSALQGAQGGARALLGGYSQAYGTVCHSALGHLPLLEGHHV

[11] = target: Rho-associated protein kinase 2 (Homo sapiens) (UniProt O75116); test: Percentage ROCK2 activity remaining in the presence of 3uM inhibitor
Sequence of Rho-associated protein kinase 2 (Homo sapiens) (O75116 whole entry, looked up): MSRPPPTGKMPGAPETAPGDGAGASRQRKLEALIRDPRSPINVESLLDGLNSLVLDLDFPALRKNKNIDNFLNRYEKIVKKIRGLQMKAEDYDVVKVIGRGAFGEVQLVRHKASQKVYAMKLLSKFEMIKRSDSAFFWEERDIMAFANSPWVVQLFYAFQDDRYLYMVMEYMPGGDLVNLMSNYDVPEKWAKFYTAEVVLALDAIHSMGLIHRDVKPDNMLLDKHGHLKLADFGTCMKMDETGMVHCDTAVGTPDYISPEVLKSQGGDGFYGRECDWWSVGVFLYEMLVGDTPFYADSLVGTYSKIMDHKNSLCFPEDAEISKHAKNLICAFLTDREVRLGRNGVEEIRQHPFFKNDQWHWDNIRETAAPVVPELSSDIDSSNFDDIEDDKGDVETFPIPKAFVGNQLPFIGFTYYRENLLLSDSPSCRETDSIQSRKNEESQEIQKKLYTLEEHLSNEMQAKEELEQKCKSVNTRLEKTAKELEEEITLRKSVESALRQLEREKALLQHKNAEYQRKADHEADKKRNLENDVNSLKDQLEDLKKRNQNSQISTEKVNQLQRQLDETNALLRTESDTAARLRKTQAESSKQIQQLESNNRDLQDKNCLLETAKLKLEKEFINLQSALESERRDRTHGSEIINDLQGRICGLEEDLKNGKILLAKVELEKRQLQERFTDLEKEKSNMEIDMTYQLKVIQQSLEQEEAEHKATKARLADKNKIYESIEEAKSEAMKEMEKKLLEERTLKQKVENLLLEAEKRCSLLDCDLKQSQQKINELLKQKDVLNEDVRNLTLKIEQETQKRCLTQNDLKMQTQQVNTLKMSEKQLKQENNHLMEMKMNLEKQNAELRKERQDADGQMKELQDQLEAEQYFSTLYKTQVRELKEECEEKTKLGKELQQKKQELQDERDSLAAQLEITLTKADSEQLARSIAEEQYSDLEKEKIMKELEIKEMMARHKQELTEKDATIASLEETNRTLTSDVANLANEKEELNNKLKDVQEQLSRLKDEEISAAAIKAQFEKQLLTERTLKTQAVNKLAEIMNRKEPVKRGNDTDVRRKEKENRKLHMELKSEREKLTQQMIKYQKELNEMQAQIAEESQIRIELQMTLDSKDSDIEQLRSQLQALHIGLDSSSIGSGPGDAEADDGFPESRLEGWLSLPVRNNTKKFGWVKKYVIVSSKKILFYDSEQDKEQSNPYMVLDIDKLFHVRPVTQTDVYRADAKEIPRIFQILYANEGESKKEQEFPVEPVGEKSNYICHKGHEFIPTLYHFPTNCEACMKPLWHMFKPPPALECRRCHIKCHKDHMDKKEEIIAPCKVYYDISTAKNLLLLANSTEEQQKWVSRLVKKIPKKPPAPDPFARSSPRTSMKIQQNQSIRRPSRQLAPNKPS

Sequence of RAC-beta serine/threonine-protein kinase (Homo sapiens) (P31751 whole entry): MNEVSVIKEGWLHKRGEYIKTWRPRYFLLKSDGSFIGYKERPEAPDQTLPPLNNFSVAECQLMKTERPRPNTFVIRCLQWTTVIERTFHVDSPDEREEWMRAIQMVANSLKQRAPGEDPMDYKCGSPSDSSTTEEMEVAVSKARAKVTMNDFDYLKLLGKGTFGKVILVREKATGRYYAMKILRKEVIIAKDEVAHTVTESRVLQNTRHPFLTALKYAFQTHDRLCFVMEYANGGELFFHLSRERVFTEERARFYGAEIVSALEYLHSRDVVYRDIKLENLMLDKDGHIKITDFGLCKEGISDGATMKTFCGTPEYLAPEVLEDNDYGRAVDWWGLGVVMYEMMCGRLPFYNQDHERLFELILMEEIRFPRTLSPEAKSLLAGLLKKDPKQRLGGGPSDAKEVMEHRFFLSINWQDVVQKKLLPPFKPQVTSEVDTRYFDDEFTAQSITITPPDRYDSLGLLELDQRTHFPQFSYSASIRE

Activity [1] [%] | Activity [2] [%] | Activity [3] [%] | Activity [4] [%] | Activity [5] [%] | Activity [6] [%] | Activity [7] [%] | Activity [8] [%] | Activity [9] [%] | Activity [11] [%] | Structure (SMILES) | Activity [10] [%]
96 | 8 | 82 | 93 | 82 |  |  |  |  |  | Cn1cc(C2=C(c3ccc(Cl)cc3Cl)C(=O)NC2=O)c2ccccc21 | 
 |  |  |  |  | 59 | 91 | 92 | 75 | 86 | Cc1ccc(-c2c(C(=O)CF)n(CCCO)c3ncnc(N)c23)cc1 | 58

Source: ChEMBL document CHEMBL1150976, “The selectivity of protein kinase inhibitors: a further update” (Biochem J, 2007)
